{
  "source": "patent US20050031610A1",
  "about": "“CD44-related fragments, compositions and methods” (priority 2002, published 2005)",
  "key": {"CD44": {"test_system": "CD44", "test": "Ligand-induced CD44 cleavage / generation of CD44-ICD in CD44-transfected cells (Western blot, anti-V5)", "format": "cell-based", "from_the_text": "FIG. 5. (A) Schematic representations of truncated CD44 constructs and putative cleavage sites of CD44. Starting amino acid sequences of truncated (ΔE) or intracellular (ICD) CD44 constructs and predicated proteolytic cleavage sites are indicated by arrows. Full-length (FL) and all ICD constructs contain C-terminal V5 tag, whereas all ΔE constructs harbor N-terminal HA tag located immediately after the signal peptide in addition to the C-terminal V5 tag. (B) Expression of truncated CD44 constructs in HEK293 cells. The lysates from the cells transfected with indicated constructs were analyzed by Western blot analyses. The locations of precursor polypeptide encoded by each constructs as well as the cleavage products (e.g. S1, T1, and T2) are shown on the right side of each blot. The lysates from full-length CD44-transfected cells grown in the absence (FL) or presence (FL+hyaluronan) of hyaluronan are shown as controls.\nFIG. 6. Ligand-induced generation of CD44-ICD. Cells were treated for 24 hours with solvent only (Control), hyaluronan, hyaluronan plus Cpd. E, phorbol ester TPA, and TPA plus hyaluronan, and the lysates were analyzed by Western blotting using anti-V5 antibody.\n(§1) It has been previously reported that high molecular weight forms of hyaluronan (HA) induce cell growth arrest (Morrison et al., Genes and Development, 15, 968-980, 2001; Herrlich et al., Ann. NY Acad. Sci. 910, 106-118, 2000)."}, "γ-secretase [1]": {"test_system": "γ-secretase", "test": "In vitro CD44-ICD generation using membrane fractions from CD44-transfected 293 cells", "format": "biochemical", "parameters": "dose or concentration left out as unconfirmed", "conditions": "membrane fractions from dW and dAsp cells, 37° C.", "method": "FIG. 4. In vitro generation of the CD44 intracellular domain (CD44-ICD). Membrane fractions prepared from either dW or dAsp cells transfected with full-length CD44 were incubated at 37° C. for the indicated hours with or without Cpd E (1 mM) or MG132 (50 mM). After the incubation, both the pellet (A) and the supernatant (B) were analyzed by Western blot analyses […] using anti-V5 antibody.\nThe incubation of the cytosol-free membrane fractions from dW cells transfected with CD44 led to the generation of two fragments (T1 and T2) in the membrane fractions (FIG. 4A) and the release of V5-epitope-tagged CD44-ICD into the soluble fraction (FIG. 4B)."}, "HEK293 cells": {"test_system": "HEK293 cells", "test": "Hyaluronan-mediated growth retardation, count of EGFP-positive CD44-transfected HEK293 cells", "format": "cell-based", "conditions": "40 hour incubation", "method": "FIG. 7. Effects of a γ-secretase inhibitor in hyaluronan-mediated growth retardation. HEK293 cells were transfected with constructs encoding both full-length CD44 and enhance green fluorescence protein (EGFP) in a single plasmid. Identical number of transfected cells were plated into multiple dishes and incubated with hyaluronan, hyaluronan plus Cpd. E, TPA, and TPA plus Cpd. E. After 40 hour incubation, the number of EGFP-positive cells were counted. Values represent the mean±s.d.\nas §1"}, "γ-secretase [2]": {"test_system": "γ-secretase", "test": "Accumulation of membrane-associated CD44 C-terminal fragments in CD44-transfected CHO cells (Western blot, anti-V5)", "format": "cell-based", "conditions": "CHO cells transfected with CD44 C-terminal V5-tag, 16 hours", "method": "FIG. 1. The accumulation of membrane-associated C-terminal derivatives of CD44 by a γ-secretase inhibitor. The CHO cells transfected with constructs encoding CD44 with C-terminal V5-tag were incubated in the presence of the indicated concentrations of γ-secretase inhibitor Compound E (Cpd. E) for 16 hours. Detergent lysates were analyzed by Western blot analyses (4-20% Tris-Glycine SDS-PAGE) using anti-V5 antibody.\nWhen constructs encoding full-length CD44 with C-terminal V5 epitope tag were transiently expressed, full-length CD44 (˜85 kDa) was constitutively processed to generate membrane-associated C-terminal fragments with apparent molecular weights of ˜19 to 22 kDa (FIG. 1). First, experiments were performed to determine whether a γ-secretase inhibitor blocks the putative intramembrane cleavage of CD44 to cause an accumulation of CD44 similar to that observed for APP and ErbB4 (Lee, H.-J., Jung, K.-M., Huang, Y. Z., Bennett, L. B., Lee, J. S., Mei, L. and Kim, T.-W., Presenilin-dependent γ-secretase-like intramembrane cleavage of ErbB4. J. Biol. Chem., 277:6318-6329 (2002))."}},
  "note": "“Also recorded” adds a separate entry of the source.",
  "data": [
    {"compound": "C[C@H](NC(=O)Cc1cc(F)cc(F)c1)C(=O)N[C@H]1N=C(c2ccccc2)c2ccccc2N(C)C1=O", "note": "[Compound E]", "values": [
      {"measurement": "inhibition of the HA-induced accumulation of S1 and T1 cleavage products", "setting": "CD44; hyaluronan plus Compound E", "result": "didn't inhibit"},
      {"measurement": "effect on T2 cleavage products", "setting": "CD44; hyaluronan plus Cpd. E, 24 hours", "result": "selectively affected"},
      {"measurement": "generation of T1 fragments", "setting": "γ-secretase [1]", "result": "not blocked"},
      {"measurement": "effect on the growth inhibition induced by HA", "setting": "HEK293 cells; hyaluronan plus Cpd. E", "result": "reverted the growth-inhibition"},
      {"measurement": "accumulation of transgene-derived CD44 C-terminal fragments", "setting": "γ-secretase [2]", "result": "led to the accumulation"}
    ]},
    {"compound": "hyaluronan [HA]", "values": [
      {"measurement": "levels of S1 and T1 cleavage products", "setting": "CD44; cells treated with high molecular weight forms of HA", "result": "elevated"},
      {"measurement": "generation of CD44-ICD", "setting": "CD44; cells treated with high molecular weight forms of HA, 24 hours", "result": "led to the generation of CD44-ICD"},
      {"measurement": "generation of S1 and T2 cleavage", "setting": "CD44; full-length CD44-transfected HEK293 cells, FL vs. FL+hyaluronan", "result": "increased generation"},
      {"measurement": "growth of cells transfected with CD44", "setting": "HEK293 cells; HEK293 cells, full-length CD44 and EGFP", "result": "induced growth inhibition; also recorded: led to an inhibition of cell proliferation"}
    ]}
  ]
}
